Measured values from US4740501A (priority 1985, dated 1988).
pIC50: −log10 of the molar value.

Legend:
L1210 MTX = experiment: MTX and cisplatin cross-resistance test, 24 hour exposure; format: cell-based
[1] = tested on: L-1210 leukemia cell suspensions; experiment: Tumor cell survival (trypan blue), continuous exposure; format: cell-based, Mouse; settings: for Percent Tumor Cell Survival / % tumor cell survival: L-1210; for Percent Tumor Cell Survival: treated 24 hr
[2] = tested on: B-type mouse mammary tumor virus particles in MJY-alpha cells; experiment: Electron microscopy of thin sections; format: cell-based; settings: 25 ug/ml for 2 hours
Procedure: Thin sections MJY-alpha mammary tumor cells were prepared according to standard techniques for electronmicroscopy. The magnification was scaled where the bar was equal to one um. […] The tumor virus particles are shown in the insert and also throughout the lower two-thirds of the photograph as rope-like sections. […] It should be noted that numerous microvilli are present with budding particles also in evidence. […] After that treatment period, the layer of cells was washed and then reincubated for one (1) day prior to further processing for electronmicroscopy. Although there are some microvilli with budding particles present, the number of such particles and buds is reduced. […] The layer was then similarily washed and reincubated for a two (2) days prior to further processing for electronmicroscopy.

ALL (N cell leukemia) = experiment: Survival of fresh human leukemic cells, continuous exposure; format: cell-based; settings: for % tumor cell survival: ALL
B-16 melanoma cells = experiment: Bioassay of tumorigenicity of in vitro treated tumor cells in syngeneic hosts; format: in vivo, C57BL/6 mice; settings: for MEAN SURVIVAL TIME (MST) of recipients: control 28
Description: (§1) Suspensions of untreated and tripeptide treated MJY-alpha mammary tumor, B-16 melanoma, and L-1210 leukemia cells were adjusted to a concentration of 1×10^7 cells/ml based on the initial tumor cell concentration before the tripeptide exposure. Tumor cells were inoculated into syngeneic hosts at a concentration of 1×10^6 cells in […]. Female BALB/c/Crgl recipients of MJY-alpha mammary tumor cells and male C57BL/6/Jx hosts receiving B16 melanoma cells were inoculated subcutaneously; BDf1 mice were given intraperitoneal injections of L-1210 cells. Subcutaneous tumors were measured along their long and short axes every 1 to 3 days; tumor size is reported as the product of the two measurements (mm^2). The examination periods for mice receiving L-1210, MJY-alpha and B-16 tumor grafts were 45, 80, and 85 days, respectively. All mice were autopsied at the time of death or sacrifice.

[3] = tested on: MJY-alpha mammary tumor cells; experiment: as above; format: in vivo, BALB/c mice; settings: for MEAN SURVIVAL TIME (MST) of recipients: control 42
Description: as §1

spontaneous leukemia = experiment: Treatment of spontaneous leukemia in AKR mice; format: in vivo
Description: Leukemia in AKR mice, which is the result of the oncogenic activity of the endogenous Gross leukemia virus, has been effectively used as a model for human leukemias in the studies of tumor biology, chemotherapy, and chemoimmunotherapy. There is considerable evidence that leukemia in the AKR mice mimics human leukemias in many respects, and it is probable that AKR leukemia is analogous to human acute T-cell lymphocytic leukemia. Leukemic cells first appear in the thymus of mice at 6 to 12 months of age. Controlling this disease is formidable, since the cure or long range control of spontaneous leukemia in AKR mice require the therapeutic eradication of virtually all of the oncogenic cells. The time lapse between the first appearance of viable lymphoma cells in the thymus and the clinical diagnosis is about 30 days.
The effectiveness of the tripeptide compound in the treatment of spontaneous leukemia in AKR mice was tested. The clinical diagnosis of spontaneous leukemia in AKR mice was made with 95% accuracy by splenic and lymph node palpation, followed by leukocyte count. There is good evidence that at the time of clinical diagnosis there are 0.6-1.8×10^9 widely disseminated lymphoma cells in AKR mice. Without cytoreductive therapy, AKR mice die after diagnosis of spontaneous leukemia at the rate of 50% by 14 days, 90% by 33 days, and 96% by 56 days. […] Reduction of thymus and spleen weights to normal is indicative of eradication of the primary tumor. Leukemic AKR mice receiving either treatment sustained a mean survival time of 200% and 100%, respectively. It is also important and significant that the tripeptide compound treatment provides good sustainment since 30% of the treated animals in either group were alive after the onset on the therapy (FIG. 6).

SMILES: CCOC(=O)[C@H](CCSC)NC(=O)[C@H](Cc1cccc(N(CCCl)CCCl)c1)NC(=O)[C@@H](N)Cc1ccc(F)cc1.Cl [PTT.119, 3-(p-fluorophenyl)-L-alanyl-3-[m-bis(2-chloroethyl)aminophenyl]-L-alanyl-L-methionine ethyl ester hydrochloride]
- T.C.D.100 (L1210 MTX; L1210 MTX, 24 hours exposure): 3.75 µM
- pIC50 (L1210 MTX; Mus musculus, L1210, 24 h, read-out: T.C.D.50): 5.71
- Percent Tumor Cell Survival ([1]; 0.1 ug/ml): 82%
- % tumor cell survival ([1]; 1 ug/ml, 1 hr exposure): 95%
- % tumor cell survival ([1]; 1 ug/ml, 8 hr): 100%
- % tumor cell survival ([1]; 1 ug/ml, 24 hr): 65%
- Percent Tumor Cell Survival ([1]; 1 ug/ml): 70%
- % tumor cell survival ([1]; 5 ug/ml, 1 hr): 100%
- % tumor cell survival ([1]; 5 ug/ml, 4 hr): 84%
- % tumor cell survival ([1]; 5 ug/ml, 24 hr): 57%
- Percent Tumor Cell Survival ([1]; 5 ug/ml): 62%
- % tumor cell survival ([1]; 10 ug/ml, 1 hr): 92%
- % tumor cell survival ([1]; 10 ug/ml, 4 hr): 75%
- % tumor cell survival ([1]; 10 ug/ml, 24 hr): 12%
- Percent Tumor Cell Survival ([1]; 10 ug/ml): 28%
- % tumor cell survival ([1]; 25 ug/ml, 1 hr): 50%
- % tumor cell survival ([1]; 25 ug/ml, 4 hr): 25%
- % tumor cell survival ([1]; 25 ug/ml, 8 hr): 15%
- % tumor cell survival ([1]; 25 ug/ml, 24 hr): 0%
- Percent Tumor Cell Survival ([1]; 25 ug/ml): 6%
- decrease in leukemia cell survival ([1]; continuous 24 hr exposure, all concentrations tested (0.1 to 50 ug/ml)): 18-94%
- number of microvilli budding particles and buds ([2]; reincubated 1 day): reduced
- number of microvilli ([2]; reincubated 2 days): reduced even farther
- reduction of cell survival (ALL (N cell leukemia); ALL lymphoblasts, as low as 1 ug): 75%
- % tumor cell survival (ALL (N cell leukemia); 1 ug/ml, 1 hr): 98%
- % tumor cell survival (ALL (N cell leukemia); 1 ug/ml, 4 hr): 76%
- % tumor cell survival (ALL (N cell leukemia); 1 ug/ml, 24 hr): 25%
- % tumor cell survival (ALL (N cell leukemia); 5 ug/ml, 1 hr): 46%
- % tumor cell survival (ALL (N cell leukemia); 5 ug/ml, 4 hr): 29%
- % tumor cell survival (ALL (N cell leukemia); 5 ug/ml, 24 hr): 7%
- % tumor cell survival (ALL (N cell leukemia); 10 ug/ml, 1 hr): 32%
- % tumor cell survival (ALL (N cell leukemia); 10 ug/ml, 4 hr): 15%
- % tumor cell survival (ALL (N cell leukemia); 10 ug/ml, 24 hr): 0%
- % tumor cell survival (ALL (N cell leukemia); 25 ug/ml, 1 hr): 15%
- % tumor cell survival (ALL (N cell leukemia); 25 ug/ml, 4 hr): 15%
- % tumor cell survival (ALL (N cell leukemia); 25 ug/ml, 24 hr): 0%
- % tumor cell survival (ALL (N cell leukemia); 50 ug/ml, 1 hr): 0%
- % tumor cell survival (ALL (N cell leukemia); 50 ug/ml, 4 hr): 0%
- % tumor cell survival (ALL (N cell leukemia); 50 ug/ml, 24 hr): 0%
- tumor growth in recipients (B-16 melanoma cells; 10^6 B-16 cells treated with 25 ug or higher for 30 to 240 min): complete absence of tumor growth
- MEAN SURVIVAL TIME (MST) of recipients (B-16 melanoma cells; B-16, 5 ug/ml, 60 min): 31 days
- MEAN SURVIVAL TIME (MST) of recipients (B-16 melanoma cells; B-16, 5 ug/ml, 120 min): 33 days
- MEAN SURVIVAL TIME (MST) of recipients (B-16 melanoma cells; B-16, 5 ug/ml, 240 min): 41 days
- MEAN SURVIVAL TIME (MST) of recipients (B-16 melanoma cells; B-16, 10 ug/ml, 30 min): 35 days
- MEAN SURVIVAL TIME (MST) of recipients (B-16 melanoma cells; B-16, 10 ug/ml, 60 min): 35 days
- MEAN SURVIVAL TIME (MST) of recipients (B-16 melanoma cells; B-16, 10 ug/ml, 120 min): 35 days
- MEAN SURVIVAL TIME (MST) of recipients (B-16 melanoma cells; B-16, 10 ug/ml, 240 min): 45 days
- MEAN SURVIVAL TIME (MST) of recipients (B-16 melanoma cells; B-16, 25 ug/ml, 30 min): 52 days
- MEAN SURVIVAL TIME (MST) of recipients (B-16 melanoma cells; B-16, 25 ug/ml, 60 min): 68 days
- MEAN SURVIVAL TIME (MST) of recipients (B-16 melanoma cells; B-16, 25 ug/ml, 120 min): 65 days
- initial lag period between inoculation and appearance of palpable tumors (B-16 melanoma cells; B-16, increasing dosages, 2 hr treatment): lengthened
- reduction of viable tumor cell population (B-16 melanoma cells; B-16, inferred from LD100 of 100 viable cells): at least 99.9%
- tumor growth rates of untreated and treated cells (B-16 melanoma cells; B-16, once graft established): identical
- tumor growth in recipients ([3]; 10^6 MJY-alpha cells treated with 25 ug or higher for 30 to 240 min): complete absence of tumor growth
- MEAN SURVIVAL TIME (MST) of recipients ([3]; MJY-alpha, 5 ug/ml, 60 min): 52 days
- MEAN SURVIVAL TIME (MST) of recipients ([3]; MJY-alpha, 5 ug/ml, 120 min): 43 days
- MEAN SURVIVAL TIME (MST) of recipients ([3]; MJY-alpha, 10 ug/ml, 30 min): 44 days
- MEAN SURVIVAL TIME (MST) of recipients ([3]; MJY-alpha, 10 ug/ml, 60 min): 46 days
- MEAN SURVIVAL TIME (MST) of recipients ([3]; MJY-alpha, 10 ug/ml, 120 min): 61 days
- MEAN SURVIVAL TIME (MST) of recipients ([3]; MJY-alpha, 25 ug/ml, 30 min): 56 days
- initial lag period between inoculation and appearance of palpable tumors ([3]; MJY-alpha, increasing dosages, 2 hr treatment): lengthened
- reduction of viable tumor cell population ([3]; MJY-alpha, inferred from LD100 of 100 viable cells): at least 99.9%
- tumor growth rates of untreated and treated cells ([3]; MJY-alpha, once graft established): identical
- mean survival time (spontaneous leukemia; 5 mg per kg on days 1, 4, 7, 21, and 42): 100%
- mean survival time (spontaneous leukemia; 10 mg per kg on days 1 and 14): 200%
- leukemic thymus and spleen weights (spontaneous leukemia; after chemotherapy, either regimen): Significant reductions
- treated animals alive after the onset of therapy (spontaneous leukemia; either treatment group): 30%
